From patent US4093720A, “Novel-17-spirosultines their corresponding hydroxy acids and compositions thereof” (Roussel Uclaf, priority 1976, dated 1978)

What was measured:
[1] = system: activity of 1 μg/kg of aldosterone monoacetate; assay: Antialdosterone activity in surrenalectomized rats; format: in vivo; conditions: male Sprague-Dawley surrenalectomized rats; oral dose 5 mg/kg; 1 μg/kg aldosterone monoacetate s.c.; 4 hours urine collection
Experimental: Male rats of the Sprague-Dawley strain weighing about 180 g were surrenalectomized and at that moment, the rats received with drinking water a physiological serum. […] At the end of 47 hours, the rats received orally either the B isomer of (17R) 6β, 7β-methylene-2'-oxidospiro-(Δ^4 -androstene-17,5'-[1',2']-oxathiolane)-3-one (product A), the B isomer of (17R) 6α, 7α-methylene-2'-oxidospiro-(Δ^4 -androstene-17,5'-[1',2']-oxathiolane)-3-one (product B) or the B isomer of (17R) 7α-methyl-2'-oxidospiro-(Δ^4 -androstene-17,5'-[1',2']-oxathiolane)-3-one (product C) in the form of a solution or suspension in 0.25% carboxymethylcellulose. One hour after the said oral administration, the animals received a hydrosaline overdose by intraperitoned administration of 5 ml of a […] physiological serum per 100 g of body weight and 1 μg/kg of a 2.5% alcoholic solution of aldosterone monoacetate by subcutaneous administration. The animals were placed in diuresis cages without food or drink for 4 hours and at the end of 4 hours, a forced miction was caused by pressure on the bladder. The volume of urine was brought to 50 ml and the amount of sodium and potassium was determined with an autoanalyser.

[2] = target: T1, androgen receptors (Rattus norvegicus, UniProt P15207); assay: Affinity for androgenic receptors (hormonal receptor test, rat prostate cytosol, tritiated product R); format: binding, rats; conditions: for affinity for androgen receptors (in words): conclusion from Table II; for RLA (relative affinity = 100 × CT/CX): prostate cytosol of castrated male rats, tritiated 17α-methyl-Δ4,9,11-estratriene-17β-ol-3-one, 0° C, 2 hours, testosterone = 100
T1 construct: the prostate was removed from male rats castrated 24 hours earlier and was homogenized in a buffer; from tissue; host or cells: prostate cytosol (105,000g supernatant) of male rats castrated 24 hours earlier
T1 sequence (P15207 1-902): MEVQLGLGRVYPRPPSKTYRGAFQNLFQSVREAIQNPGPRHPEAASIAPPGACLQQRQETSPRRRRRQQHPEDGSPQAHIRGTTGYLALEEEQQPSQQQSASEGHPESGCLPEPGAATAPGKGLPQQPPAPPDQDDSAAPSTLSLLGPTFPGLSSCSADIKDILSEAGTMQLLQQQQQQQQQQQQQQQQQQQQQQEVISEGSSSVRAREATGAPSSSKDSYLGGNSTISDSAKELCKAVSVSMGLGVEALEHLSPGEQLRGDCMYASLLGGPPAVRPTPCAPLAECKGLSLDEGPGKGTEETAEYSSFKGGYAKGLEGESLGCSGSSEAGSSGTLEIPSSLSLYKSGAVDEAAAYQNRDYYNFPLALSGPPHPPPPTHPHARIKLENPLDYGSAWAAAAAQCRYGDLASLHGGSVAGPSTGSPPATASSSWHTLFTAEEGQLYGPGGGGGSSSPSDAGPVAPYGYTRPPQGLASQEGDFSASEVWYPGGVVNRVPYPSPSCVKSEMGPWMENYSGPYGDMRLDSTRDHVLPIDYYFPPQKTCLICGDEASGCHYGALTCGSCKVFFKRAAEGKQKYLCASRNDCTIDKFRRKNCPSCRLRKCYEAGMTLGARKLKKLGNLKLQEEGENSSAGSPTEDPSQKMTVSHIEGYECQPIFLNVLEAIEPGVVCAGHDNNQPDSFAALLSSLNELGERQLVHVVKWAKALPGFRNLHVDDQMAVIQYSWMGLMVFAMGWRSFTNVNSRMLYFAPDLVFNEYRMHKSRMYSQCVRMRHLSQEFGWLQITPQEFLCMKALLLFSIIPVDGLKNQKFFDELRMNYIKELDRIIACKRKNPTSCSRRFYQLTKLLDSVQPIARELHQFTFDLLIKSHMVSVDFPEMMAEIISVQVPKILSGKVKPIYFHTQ
Experimental: The test used was the hormonal receptor test described by Raynaud et al [J. Ster. Biochem., Vol. 6 (1975), p. 615-622] in which the prostate was removed from male rats castrated 24 hours earlier and was homogenized in a buffer: 10 millimole tromethamine, saccharose 0.25M, HCl for pH of 7.4. The homogenate was centrifuged at 105,000g for one hour and the surnageant liquid or "cytosol" was then adjusted to obtain a dilution of 1/5 (weight/volume). […] At the end of 2 hours, the radioactivity of tritiated product tied to the receptor was determined by the adsorption technique of carbondextran (1.25% to 0.625%).
B/T max. is the percentage of tritiated product R bound when no product was added and B/T min. is the percentage of tritiated product R bound when the mazimum quantity of cold product R is added. The intersections of line I50 and the curves permit the determination of the CT and CX values.

Structure (SMILES) | % inhibition of the activity of aldosterone monoacetate against the urinary sodium/potassium ratio [1] [%] | affinity for androgen receptors (in words) [2] | RLA (relative affinity = 100 × CT/CX) [2]
C[C@]12CCC(=O)C=C1[C@@H]1C[C@@H]1[C@@H]1[C@@H]2CC[C@@]2(C)[C@H]1CC[C@@]21CCS(=O)O1 (single isomer, unassigned) [product A] | 25 | little or no affinity | 0
C[C@]12CCC(=O)C=C1[C@H]1C[C@H]1[C@@H]1[C@@H]2CC[C@@]2(C)[C@H]1CC[C@@]21CCS(=O)O1 (single isomer, unassigned) [product B] | 19 | – | –
C[C@@H]1CC2=CC(=O)CC[C@]2(C)[C@H]2CC[C@@]3(C)[C@@H](CC[C@@]34CCS(=O)O4)[C@H]12 (single isomer, unassigned) [product C] | 22 | little or no affinity | 3.6
